The assay has as its target T1, BC3310 (Bacillus cereus, UniProt Q81B77).
T1 construct: gene BC_3310; full-length in pTTQ18 with C-terminal RGSHis6 tag, expressed in E. coli DH5alpha deltaacrAB; 12 predicted TM helices; migrates at ~30 kDa
The experiment in a line: whole-cell ethidium accumulation assay (fluorescence), E. coli expressing BC3310 vs empty vector. As to conditions: 25 uM ethidium bromide, PBS with 0.4% glucose, pH 7-7.4; CCCP-sensitive efflux. The class given is cell-based.

Data on one compound can be found in article PMC4601019, “Bacillus cereus eﬄux protein BC3310 – a multidrug transporter of the unknown major facilitator family, UMF-2” (Frontiers in Microbiology, 2015).

T1 sequence (Q81B77 entry or part of it): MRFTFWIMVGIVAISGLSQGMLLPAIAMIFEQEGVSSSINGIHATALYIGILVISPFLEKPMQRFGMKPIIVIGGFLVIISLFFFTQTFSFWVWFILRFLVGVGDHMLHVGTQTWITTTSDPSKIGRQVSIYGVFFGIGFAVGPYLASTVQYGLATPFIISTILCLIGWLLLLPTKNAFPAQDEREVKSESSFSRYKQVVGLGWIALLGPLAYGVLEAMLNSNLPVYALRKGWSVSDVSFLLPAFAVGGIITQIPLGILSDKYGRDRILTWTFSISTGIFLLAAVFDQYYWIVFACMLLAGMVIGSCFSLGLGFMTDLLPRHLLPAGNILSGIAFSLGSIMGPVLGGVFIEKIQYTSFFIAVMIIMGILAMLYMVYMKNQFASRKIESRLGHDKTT

As to `CC[n+]1c(-c2ccccc2)c2cc(N)ccc2c2ccc(N)cc21` [ethidium bromide], the “whole-cell ethidium accumulation assay (fluorescence), E. coli expressing BC3310” value is “showed less fluorescence compared to the empty vector control (pTTQ18), thereby implying that BC3310 exports”.
